According to patent US20240158446A1, “CYCLIC COMPOUND HAVING SELECTIVE INHIBITORY ACTION ON KRAS OVER HRAS AND NRAS” (CHUGAI SEIYAKU KABUSHIKI KAISHA, priority 2021, published 2024):
*1 amine or outer side, *2 acyl side, *3 side chain or, on linkers, in order; H or OH if unused. Where a SMILES comes first, the peptide text is derived from it. Bridges are numbered along the chain shown (N, C = ends). [ ]: non-standard residue; d: D form. The star is where a group is joined. hPhe(3-Cl-4-CF3) = N[C@@H](CCc1ccc(C(F)(F)F)c(Cl)c1)C(=O)O; NEtPhe(4-CF3) = CCN[C@@H](Cc1ccc(C(F)(F)F)cc1)C(=O)O; NEtPhe(4-Me) = CCN[C@@H](Cc1ccc(C)cc1)C(=O)O; NMePhe(4-Me) = CN[C@@H](Cc1ccc(C)cc1)C(=O)O; X7 = CCN([C@H](C(=O)[*:2])C1CCCC1)[*:1]; NMeGly(cPent) = CN[C@H](C(=O)O)C1CCCC1; Hyp = O=C(O)[C@@H]1C[C@@H](O)CN1; NMeD = CN[C@@H](CC(=O)O)C(=O)O; NMeL = CN[C@@H](CC(C)C)C(=O)O; NMeV = CN[C@H](C(=O)O)C(C)C; Morpholide = C1CN(*)CCO1; NMeA = CN[C@@H](C)C(=O)O; Ac5c = NC1(C(=O)O)CCCC1; Aze = O=C(O)[C@@H]1CCN1; NBuGly = CCCCNCC(=O)O; NPrGly = CCCNCC(=O)O; NEtG = CCNCC(=O)O; Sar = CNCC(=O)O

Assays:
[1] = target: GDP-bound HRAS wild-type protein (Homo sapiens, UniProt P01112); test: Binding to HRAS by surface plasmon resonance (SPR), Single Cycle Kinetics; conditions: SPR, GDP-bound HRAS wild-type protein vs GDP-bound KRAS wild-type protein
[2] = target: GDP-bound KRAS wild-type protein (Homo sapiens, UniProt P01116); test: Binding to KRAS by surface plasmon resonance (SPR), Single Cycle Kinetics; conditions: SPR Single Cycle Kinetics, GDP-bound KRAS wild-type protein, 1:1 binding model; read-out: KRAS KD
[3] = target: GDP-bound NRAS wild-type protein (Homo sapiens, UniProt P01111); test: Binding to NRAS by surface plasmon resonance (SPR), Single Cycle Kinetics; conditions: SPR, GDP-bound NRAS wild-type protein vs GDP-bound KRAS wild-type protein
GDP-bound NRAS wild-type protein, sequence (P01111 whole entry): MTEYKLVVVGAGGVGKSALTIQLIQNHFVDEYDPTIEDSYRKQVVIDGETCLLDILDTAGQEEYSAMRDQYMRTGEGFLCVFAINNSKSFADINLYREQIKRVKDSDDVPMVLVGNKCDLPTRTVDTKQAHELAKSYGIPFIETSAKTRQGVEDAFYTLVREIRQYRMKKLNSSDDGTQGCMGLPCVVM

GDP-bound KRAS wild-type protein, sequence (P01116 whole entry): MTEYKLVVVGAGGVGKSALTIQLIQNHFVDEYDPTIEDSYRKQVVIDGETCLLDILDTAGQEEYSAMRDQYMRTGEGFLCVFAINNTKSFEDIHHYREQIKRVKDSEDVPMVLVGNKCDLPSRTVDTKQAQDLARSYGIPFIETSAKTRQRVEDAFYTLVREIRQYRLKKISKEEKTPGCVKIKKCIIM
GDP-bound HRAS wild-type protein, sequence (P01112 whole entry): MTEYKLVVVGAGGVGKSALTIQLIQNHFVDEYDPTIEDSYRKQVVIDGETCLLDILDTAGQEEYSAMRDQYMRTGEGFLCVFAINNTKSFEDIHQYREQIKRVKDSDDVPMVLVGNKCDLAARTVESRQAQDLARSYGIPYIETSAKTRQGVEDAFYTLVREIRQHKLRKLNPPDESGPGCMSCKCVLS

Kd [2] [nM] | Structure (SMILES) | HRAS/KRAS (ratio of KD value for HRAS to KD value for KRAS) [1] | NRAS/KRAS (ratio of KD value for NRAS to KD value for KRAS) [3]
0.09 | CCO[C@@H]1C[C@H]2C(=O)NC3(CCCC3)C(=O)N(C)[C@@H](C3CCCC3)C(=O)N(C)[C@H](C(=O)N3CCOCC3)CC(=O)N(C)[C@@H](CC(C)C)C(=O)N[C@@H]([C@@H](C)CC)C(=O)N(C)[C@@H](C)C(=O)N3CC[C@H]3C(=O)N(CC)[C@@H](Cc3ccc(C)cc3)C(=O)N(C)CC(=O)N[C@@H](CCc3ccc(C(F)(F)F)c(Cl)c3)C(=O)N2C1 [PP0014] ([NMeL]I[NMeA][Aze][NEtPhe(4-Me)][Sar][hPhe(3-Cl-4-CF3)][Hyp](Et)[Ac5c][NMeGly(cPent)][NMeD]-Morpholide; lactam N-11) | C (A compound having a KD ratio of 0.1 or more and less than 3 is denoted as C) | C (A compound having a KD ratio of 0.1 or more and less than 3 is denoted as C)
2.7 | CC[C@H](C)[C@@H]1NC(=O)[C@H](CC(C)C)N(C)C(=O)C[C@@H](C(=O)N2CCOCC2)N(C)C(=O)[C@H](C(C)C)N(C)C(=O)C2(CCCC2)NC(=O)[C@@H]2CCCN2C(=O)[C@H](CCc2ccc(C(F)(F)F)c(Cl)c2)NC(=O)CN(C)C(=O)[C@H](Cc2ccc(C)cc2)N(CC)C(=O)[C@@H]2CCN2C(=O)[C@H](C)N(C)C1=O [PP0015] ([NMeL]I[NMeA][Aze][NEtPhe(4-Me)][Sar][hPhe(3-Cl-4-CF3)]P[Ac5c][NMeV][NMeD]-Morpholide; lactam N-11) | C (A compound having a KD ratio of 0.1 or more and less than 3 is denoted as C) | C (A compound having a KD ratio of 0.1 or more and less than 3 is denoted as C)
1.6 | CC[C@H](C)[C@@H]1NC(=O)[C@H](CC(C)C)N(C)C(=O)C[C@@H](C(=O)N2CCOCC2)N(C)C(=O)[C@H](CC(C)C)N(C)C(=O)C2(CCCC2)NC(=O)[C@@H]2CCCN2C(=O)[C@H](CCc2ccc(C(F)(F)F)c(Cl)c2)NC(=O)CN(C)C(=O)[C@H](Cc2ccc(C)cc2)N(CC)C(=O)[C@@H]2CCN2C(=O)[C@H](C)N(C)C1=O [PP0016] ([NMeL]I[NMeA][Aze][NEtPhe(4-Me)][Sar][hPhe(3-Cl-4-CF3)]P[Ac5c][NMeL][NMeD]-Morpholide; lactam N-11) | C (A compound having a KD ratio of 0.1 or more and less than 3 is denoted as C) | C (A compound having a KD ratio of 0.1 or more and less than 3 is denoted as C)
0.077 | CC[C@H](C)[C@@H]1NC(=O)[C@H](CC(C)C)N(C)C(=O)C[C@@H](C(=O)N2CCOCC2)N(C)C(=O)[C@H](C2CCCC2)N(C)C(=O)C2(CCCC2)NC(=O)[C@@H]2CCCN2C(=O)[C@H](CCc2ccc(C(F)(F)F)c(Cl)c2)NC(=O)CN(C)C(=O)[C@H](Cc2ccc(C)cc2)N(C)C(=O)CN(C)C(=O)CN(C)C1=O [PP0018] ([NMeL]I[Sar][Sar][NMePhe(4-Me)][Sar][hPhe(3-Cl-4-CF3)]P[Ac5c][NMeGly(cPent)][NMeD]-Morpholide; lactam N-11) | C (A compound having a KD ratio of 0.1 or more and less than 3 is denoted as C) | C (A compound having a KD ratio of 0.1 or more and less than 3 is denoted as C)
0.34 | CC[C@H](C)[C@@H]1NC(=O)[C@H](CC(C)C)N(C)C(=O)C[C@@H](C(=O)N2CCOCC2)N(C)C(=O)[C@H](C2CCCC2)N(C)C(=O)C2(CCCC2)NC(=O)[C@@H]2CCCN2C(=O)[C@H](CCc2ccc(C(F)(F)F)c(Cl)c2)NC(=O)CN(C)C(=O)[C@H](Cc2ccc(C)cc2)N(C)C(=O)CN(CC)C(=O)CN(C)C1=O [PP0019] ([NMeL]I[Sar][NEtG][NMePhe(4-Me)][Sar][hPhe(3-Cl-4-CF3)]P[Ac5c][NMeGly(cPent)][NMeD]-Morpholide; lactam N-11) | C (A compound having a KD ratio of 0.1 or more and less than 3 is denoted as C) | C (A compound having a KD ratio of 0.1 or more and less than 3 is denoted as C)
0.77 | CCCN1CC(=O)N(C)[C@@H](Cc2ccc(C)cc2)C(=O)N(C)CC(=O)N[C@@H](CCc2ccc(C(F)(F)F)c(Cl)c2)C(=O)N2CCC[C@H]2C(=O)NC2(CCCC2)C(=O)N(C)[C@@H](C2CCCC2)C(=O)N(C)[C@H](C(=O)N2CCOCC2)CC(=O)N(C)[C@@H](CC(C)C)C(=O)N[C@@H]([C@@H](C)CC)C(=O)N(C)CC1=O [PP0020] ([NMeL]I[Sar][NPrGly][NMePhe(4-Me)][Sar][hPhe(3-Cl-4-CF3)]P[Ac5c][NMeGly(cPent)][NMeD]-Morpholide; lactam N-11) | C (A compound having a KD ratio of 0.1 or more and less than 3 is denoted as C) | C (A compound having a KD ratio of 0.1 or more and less than 3 is denoted as C)
0.65 | CCCCN1CC(=O)N(C)[C@@H](Cc2ccc(C)cc2)C(=O)N(C)CC(=O)N[C@@H](CCc2ccc(C(F)(F)F)c(Cl)c2)C(=O)N2CCC[C@H]2C(=O)NC2(CCCC2)C(=O)N(C)[C@@H](C2CCCC2)C(=O)N(C)[C@H](C(=O)N2CCOCC2)CC(=O)N(C)[C@@H](CC(C)C)C(=O)N[C@@H]([C@@H](C)CC)C(=O)N(C)CC1=O [PP0021] ([NMeL]I[Sar][NBuGly][NMePhe(4-Me)][Sar][hPhe(3-Cl-4-CF3)]P[Ac5c][NMeGly(cPent)][NMeD]-Morpholide; lactam N-11) | C (A compound having a KD ratio of 0.1 or more and less than 3 is denoted as C) | C (A compound having a KD ratio of 0.1 or more and less than 3 is denoted as C)
0.18 | CC[C@H](C)[C@@H]1NC(=O)[C@H](CC(C)C)N(C)C(=O)C[C@@H](C(=O)N2CCOCC2)N(C)C(=O)[C@H](C2CCCC2)N(C)C(=O)C2(CCCC2)NC(=O)[C@@H]2CCCN2C(=O)[C@H](CCc2ccc(C(F)(F)F)c(Cl)c2)NC(=O)CN(C)C(=O)[C@H](Cc2ccc(C)cc2)N(CC)C(=O)CN(C)C(=O)CN(C)C1=O [PP0022] ([NMeL]I[Sar][Sar][NEtPhe(4-Me)][Sar][hPhe(3-Cl-4-CF3)]P[Ac5c][NMeGly(cPent)][NMeD]-Morpholide; lactam N-11) | C (A compound having a KD ratio of 0.1 or more and less than 3 is denoted as C) | B (a compound having 3 or more and less than 10 is denoted as B)
0.14 | CC[C@H](C)[C@@H]1NC(=O)[C@H](CC(C)C)N(C)C(=O)C[C@@H](C(=O)N2CCOCC2)N(C)C(=O)[C@H](C2CCCC2)N(C)C(=O)C2(CCCC2)NC(=O)[C@@H]2CCCN2C(=O)[C@H](CCc2ccc(C(F)(F)F)c(Cl)c2)NC(=O)CN(C)C(=O)[C@H](Cc2ccc(C(F)(F)F)cc2)N(CC)C(=O)CN(C)C(=O)CN(C)C1=O [PP0023] ([NMeL]I[Sar][Sar][NEtPhe(4-CF3)][Sar][hPhe(3-Cl-4-CF3)]P[Ac5c][NMeGly(cPent)][NMeD]-Morpholide; lactam N-11) | C (A compound having a KD ratio of 0.1 or more and less than 3 is denoted as C) | B (a compound having 3 or more and less than 10 is denoted as B)
5.9 | CC[C@H](C)[C@@H]1NC(=O)[C@H](CC(C)C)N(C)C(=O)C[C@@H](C(=O)N2CCOCC2)N(C)C(=O)[C@H](C2CCCC2)N(C)C(=O)C2(CCCC2)NC(=O)[C@@H]2CCCN2C(=O)[C@H](CCc2ccc(C(F)(F)F)c(Cl)c2)NC(=O)CN(C)C(=O)[C@H](C2CCCC2)N(CC)C(=O)CN(C)C(=O)CN(C)C1=O [PP0024] ([NMeL]I[Sar][Sar][X7][Sar][hPhe(3-Cl-4-CF3)]P[Ac5c][NMeGly(cPent)][NMeD]-Morpholide; lactam N-11) | C (A compound having a KD ratio of 0.1 or more and less than 3 is denoted as C) | B (a compound having 3 or more and less than 10 is denoted as B)
2.4 | CC[C@H](C)[C@@H]1NC(=O)[C@H](CC(C)C)N(C)C(=O)C[C@@H](C(=O)N2CCOCC2)N(C)C(=O)[C@H](C2CCCC2)N(C)C(=O)C2(CCCC2)NC(=O)[C@@H]2CCCN2C(=O)[C@H](CCc2ccc(C(F)(F)F)c(Cl)c2)NC(=O)CN(CC)C(=O)[C@H](Cc2ccc(C)cc2)N(C)C(=O)CN(C)C(=O)CN(C)C1=O [PP0025] ([NMeL]I[Sar][Sar][NMePhe(4-Me)][NEtG][hPhe(3-Cl-4-CF3)]P[Ac5c][NMeGly(cPent)][NMeD]-Morpholide; lactam N-11) | C (A compound having a KD ratio of 0.1 or more and less than 3 is denoted as C) | C (A compound having a KD ratio of 0.1 or more and less than 3 is denoted as C)
0.8 | CC[C@H](C)[C@@H]1NC(=O)[C@H](CC(C)C)N(C)C(=O)C[C@@H](C(=O)N2CCOCC2)N(C)C(=O)[C@H](C2CCCC2)N(C)C(=O)C2(CCCC2)NC(=O)[C@@H]2CCCN2C(=O)[C@H](CCc2ccc(C(F)(F)F)c(Cl)c2)NC(=O)CN(C)C(=O)[C@H](Cc2ccc(C)cc2)N(CC)C(=O)CN(CC)C(=O)CN(C)C1=O [PP0027] ([NMeL]I[Sar][NEtG][NEtPhe(4-Me)][Sar][hPhe(3-Cl-4-CF3)]P[Ac5c][NMeGly(cPent)][NMeD]-Morpholide; lactam N-11) | C (A compound having a KD ratio of 0.1 or more and less than 3 is denoted as C) | C (A compound having a KD ratio of 0.1 or more and less than 3 is denoted as C)
